What was measured:
[1] = test system: IL-13Rα2 positive U-251 MG cells; experiment: Localization of biotin-conjugated proteins, tyramide signal amplification, confocal microscopy; assay type: cell-based, Human
Description: Biotin-XX microscale protein labeling kit (Invitrogen, Carlsbad, Calif.) was used to label the proteins as per the manufacturer's instructions. A different molar ratio of 12, 8 or 4 biotin-dye to the proteins was used. The biotin-labeled proteins were run on a gel and a western blot carried out using streptavidin-HR.P (Pierce, Rockford, Ill.) to detect for biotin-labeled proteins. The number of Biotin molecules attached to the proteins was determined by the Biofluoreporter assay kit (Invitrogen) as per the manufacturer's guidelines.
12,500 U-251 MG GBM cells were plated on coverslips per well in a 24-well plate. […] After the incubations, the cells were fixed with 4% paraformaldehyde (Ted Pella, Redding, Calif.) for 15 mins at 37° C. and washed with PBS 4× times. The cells were then permeabilized with 0.1% Triton-X-100/0.2% BSA-PBS for 10 min at RT. After permeabilization, the cells were washed 3 times with 1×PBS. After washings, Tyramide signal amplification kit (Invitrogen, Carlsbad, Calif.) using Alexa fluor 488 dyes and HR.P-streptavidin was carried out as per manufacturer's instructions. Topro-3 iodide (Invitrogen, Carlsbad, Calif.) was added at a concentration of 1:1000 dilution of the 1 mM stock to stain the cell nuclei. […]

[2] = test system: LN229 cells, very low expressors of IL-13Rα2; experiment: Localization of biotin-labeled proteins in LN229 cells; assay type: cell-based, Human; conditions: 24 hr.
Description: (§1) 12,500 U-251 MG GBM cells were plated on coverslips per well in a 24-well plate. After 24 hr., 1 μM/well of biotin-labeled proteins was added onto the U-251 MG cells for 15 min, 4, 8 and 24 hr. After the incubations, the cells were fixed with 4% paraformaldehyde (Ted Pella, Redding, Calif.) for 15 mins at 37° C. and washed with PBS 4× times. The cells were then permeabilized with 0.1% Triton-X-100/0.2% BSA-PBS for 10 min at RT. After permeabilization, the cells were washed 3 times with 1×PBS. After washings, Tyramide signal amplification kit (Invitrogen, Carlsbad, Calif.) using Alexa fluor 488 dyes and HR.P-streptavidin was carried out as per manufacturer's instructions. Topro-3 iodide (Invitrogen, Carlsbad, Calif.) was added at a concentration of 1:1000 dilution of the 1 mM stock to stain the cell nuclei. After the tyramide staining, wells were washed and mounted with gel mount (Biomeda, Foster City, Calif.) and observed with LSM 510 Zeiss Confocal Microscope (Cellular Imaging Core, Comprehensive Cancer Center, Wake Forest University) and the images processed using Zeiss LSM Image Browser (version 4.2).
We carried out identical experiments with biotin-labeled IL-13.E13K-D2-NLS in LN229 cells, very low expressors of IL-13Rα2.

[3] = test system: G48a GBM cells, which over-express IL-13Rα2; experiment: Localization of biotin-conjugated proteins in G48a GBM cells; assay type: cell-based
Description: as §1, with “After 24 hr., 1 μM/well of biotin-labeled proteins was added onto the U-251 MG cells for 15 min, 4, 8 and 24 hr.” left out
We repeated the above experiments in another GBM cell line, G48a (13), which over-expresses IL-13Rα2. We obtained similar results as with the U-251 MG cells.

[4] = target: T1, IL-13Rα2 receptor on GBM cells (U-251 MG) (Homo sapiens, UniProt Q14627); experiment: Colorimetric MTS/PMS cell viability assay: neutralization of IL-13.E13K-PE38QQR cytotoxicity (competition for receptor); assay type: cell-based
T1 construct: endogenous in cells; host or cells: U-251 MG human glioblastoma cells (ATCC)
T1 sequence (Q14627 27-380): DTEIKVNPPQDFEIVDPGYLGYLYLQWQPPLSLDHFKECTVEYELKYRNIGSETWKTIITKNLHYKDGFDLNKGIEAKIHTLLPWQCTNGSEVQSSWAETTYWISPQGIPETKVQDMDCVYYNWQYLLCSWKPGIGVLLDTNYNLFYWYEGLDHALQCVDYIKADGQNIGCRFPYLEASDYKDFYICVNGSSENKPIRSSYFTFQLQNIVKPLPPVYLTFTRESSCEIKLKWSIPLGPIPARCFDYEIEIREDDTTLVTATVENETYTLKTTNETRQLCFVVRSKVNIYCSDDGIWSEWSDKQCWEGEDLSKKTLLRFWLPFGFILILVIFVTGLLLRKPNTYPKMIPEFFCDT
Description: 1× 10^3 U-251 MG cells were plated per well in quadruplicates for each concentration to be tested. IL-13.E13K-PE38QQR is an IL-13Rα2 based cytotoxin against GBM (24). After 24 hours incubation at […] for the cells to attach, a fixed concentration (i.e. 1 μM) of the IL13.E13K-D2-NLS and other purified proteins were added and incubated at 37° C. for 1 hr. After 1 hr. incubation, increasing concentrations of the IL-13.E13K-PE38QQR ranging from 0.1 to 100 ng/ml was added and the plate was incubated for 48 hr. Cells treated with cyclohexamide and just the cytotoxins were used as controls. After 48 hr., cell viability was measured using the MTS [3-(4,5-dimethylthiazol-2-yl)-543-carboxymethoxyphenyl)-2-(4-sulfophenyl)-2H-tetrazolium]/PMS [phenazine methosulfate] dye (Promega, Madison, Wis.) as per the manufacturer's instructions. The absorbance from the assay was measured at 490 nm using the plate reader Spectra max 340 PC (Molecular Devices, Sunnyvale, Calif.) and data was plotted as percentage of control versus concentration of the toxin used.
To this end, we carried out a cell-viability assay in which these recombinant proteins bound to the IL-13Rα2 receptor and protected against cytotoxic action of IL-13.E13K-PE38QQR. […]

IL-13.E13K
subcellular localization ([1]; biotin label, 8, 4 hr and 5 min, data not shown): demonstrate the results observed at 24 hr | subcellular localization ([1]; biotin label, 24 hr.): accumulated mainly in the peri-nuclear region | cytosolic or perinuclear localization [2]: no cytosolic or perinuclear localization | nuclear localization ([3]; any of the time-points): not found to have any nuclear localization | subcellular localization ([3]; biotin label, 4, 8 and 24 hr.): cytosolic/perinuclear localization | subcellular localization ([3]; biotin label, 5 min): cell membrane binding | protection against cytotoxic action of IL-13.E13K-PE38QQR (competition for IL-13Rα2) ([4]; U-251 MG cells, 1 μM protein 1 hr before 0.1 to 100 ng/ml cytotoxin, 48 hr): blocked the action of the cytotoxin | binding of biotin-conjugated proteins to IL-13Rα2 on GBM cells ([4]; biotin-conjugated proteins): bind to the IL-13Rα2

— patent US11136367B2, “Multi-level specific targeting of cancer cells” (Wake Forest University Health Sciences, priority 2010, dated 2021)
